In article PMC10744608, “Simplified Synthesis of Renieramycin T Derivatives to Target Cancer Stem Cells via β-Catenin Proteasomal Degradation in Human Lung Cancer” (Marine Drugs, 2023):

Experiments:
Type in all cases: cell-based, human
[1] = tested on: A549 cells; assay: MTT cell viability assay; details: Homo sapiens, A549, 24 h treatment
Description: (§1) The cell viability was assessed using an MTT assay, determining the half-maximal inhibitory concentration (IC50) to screen right-half RT analogs (DH_18, DH_21, DH_32, DH_35, DH_38, and DH_39). Human NSCLC cells (A549, H23, and H292) were seeded in a 96-well cell culture plate at a density of 1 × 10^4 cells per well and incubated for 24 h at 37 °C. Subsequently, the culture medium was aspirated, and a complete medium with varying concentrations (0–100 μM) of right-half RT analogs was added for 24 h. Following the removal of the compound-containing medium, an MTT reagent at a concentration of 4 mg/mL was applied and incubated for 3 h at 37 °C. The MTT reagent was replaced with 100 μL of DMSO to dissolve the formazan crystals. The measurement of the formazan product was conducted at 570 nm utilizing a microplate reader. RT served as the positive control in this experiment.

[2] = tested on: H23 cells; assay: MTT cell viability assay; details: Homo sapiens, NCI-H23, H23, 24 h treatment
Description: as §1

[3] = tested on: H292 cells; assay: MTT cell viability assay; details: Homo sapiens, NCI-H292, H292, 24 h treatment
Description: as §1

[4] = tested on: NSCLC cells (A549, H23, and H292); assay: MTT cell viability assay, statements over all lung cancer lines; details: summary over A549, H23 and H292, 24 h
Description: as §1

[5] = tested on: CSC spheroids of A549, H23, and H292 cells; assay: 3D CSC spheroid formation with immunofluorescence; details: 50 nM, 24 h, immunofluorescence
Description: A three-dimensional (3D) spheroid was employed to generate the spheroids containing CSC subpopulations from lung cancer cells. For CSC-rich population establishment, the spheroid culture assay used in this study was slightly modified from a previously described method. Lung cancer cells, specifically NSCLC cells (A549, H23, and H292), were seeded onto a 24-well ultra-low attachment plate, with approximately density of 2.5 × 10^3 cells per well in a medium with a 1% FBS and Nutristem mix. The primary spheroids were allowed to form for 7 days. Every 2 days, fresh medium with 1% FBS and Nutristem mix was replenished. On day 7 of primary spheroid culture, primary spheroids were resuspended into single cells using trypsin, and again 2.5 × 10^3 cells/well were seeded into a 24-well ultra-low attachment plate. Secondary spheroids were allowed to form for 10 days. After 10 days, the secondary spheroids were treated with 50 nM concentration DH_32 for 24 h treatment. The spheroids that had undergone treatment were retrieved through centrifugation at 1000× g for 30 s and then rinsed with PBS. The spheroids were fixed with 4% paraformaldehyde in a 50 μL PBS solution for 20 min at room temperature, and then they were made permeable by treating them with 0.1% Triton X in PBS for 5 min at room temperature. The spheroids were exposed to a mixture of 5% FBS and 2% BSA in PBS for 1 h at room temperature to prevent non-specific protein interactions. Subsequently, the spheroids were incubated with primary antibodies (CD133, CD44, and OCT4) at a 1:250 dilution in a 30 μL PBS solution containing 2.5% FBS and 1% BSA, and this incubation took place overnight at 4 °C. On the subsequent day, the spheroids were rinsed with PBS and then exposed to secondary antibodies (Alexa Fluor 594-conjugated goat anti-rabbit IgG (H+L) and Alexa Fluor 488-conjugated goat anti-mouse IgG (H+L)) at a 1:500 dilution in a 30 μL PBS solution containing 2.5% FBS and 1% BSA at room temperature for 1 h 30 min. These spheroids were subjected to staining with Hoechst 33342 (Sigma, St. Louis, MO, USA) at a concentration of 10 μg/mL for a duration of 15 min at room temperature. Subsequently, the fluorescence signals were observed using a fluorescence microscope (Olympus IX 51 with DP70; Olympus America Inc., Center Valley, PA, USA). The intensity of fluorescence was quantified using Image J software. NSCLC spheroids treated with RT at 50 nM and cisplatin at 50 nM served as the positive control.

Row | Compound | IC50 [1] [µM] | IC50 [2] [µM] | IC50 [3] [µM] | IC50 ([4]; Homo sapiens, 24 h) [µM] | IC50 [4] [µM] | levels of CD133, CD44, and OCT4 in CSC spheroids [5]
1 | COC1=C(C)C(=O)C2=C(C1=O)[C@@H]1CN(Cc3cccnc3)[C@@H](C#N)[C@H](C2)N1C [DH_21, (1R,4R,5S)-9-methoxy-8,11-dimethyl-7,10-dioxo-3-(pyridin-3-ylmethyl)-1,2,3,4,5,6,7,10-octahydro-1,5-epiminobenzo[d]azocine-4-carbonitrile] | 51.4 ± 1.5 | 49.4 ± 1.01 | 54.1 ± 1.15 | 28 to 77 |  | 
2 | COC1=C(C)C(=O)C2=C(C1=O)[C@@H]1CN(CCO)[C@@H](C#N)[C@H](C2)N1C [DH_38, (1R,4R,5S)-3-(2-hydroxyethyl)-9-methoxy-8,11-dimethyl-7,10-dioxo-1,2,3,4,5,6,7,10-octahydro-1,5-epiminobenzo[d]azocine-4-carbonitrile] | 43.8 ± 1.43 | 50.4 ± 1.18 | 43.7 ± 0.86 | 28 to 77 |  | 
3 | COC1=C(C)C(=O)C2=C(C1=O)[C@@H]1CN(Cc3ccccn3)[C@@H](C#N)[C@H](C2)N1C [DH_18, (1R,4R,5S)-9-methoxy-8,11-dimethyl-7,10-dioxo-3-(pyridin-2-ylmethyl)-1,2,3,4,5,6,7,10-octahydro-1,5-epiminobenzo[d]azocine-4-carbonitrile] | 28 ± 0.86 | 28.1 ± 0.83 | 29.5 ± 0.75 | 28 to 77 | ~30 | 
4 | C#CCN1C[C@H]2C3=C(C[C@@H]([C@@H]1C#N)N2C)C(=O)C(C)=C(OC)C3=O [DH_35, (1R,4R,5S)-9-methoxy-8,11-dimethyl-7,10-dioxo-3-(prop-2-yn-1-yl)-1,2,3,4,5,6,7,10-octahydro-1,5-epiminobenzo[d]azocine-4-carbonitrile] | 76.3 ± 2.98 | 56 ± 1.78 | 57.7 ± 1.45 | 28 to 77 |  | 
5 | N.N.[Cl][Pt][Cl] [cisplatin, reference compound] |  |  |  |  |  | could not alter CSC markers
6 | COC1=C(C)C(=O)C2=C(C1=O)[C@@H]1CN(CCN3C(=O)c4ccccc4C3=O)[C@@H](C#N)[C@H](C2)N1C [DH_39, (1R,4R,5S)-3-(2-{1,3-dioxoisoindolin-2-yl}ethyl)-9-methoxy-8,11-dimethyl-7,10-dioxo-1,2,3,4,5,6,7,10-octahydro-1,5-epiminobenzo[d]azocine-4-carbonitrile] | 70 ± 0.85 | 73.3 ± 1.17 | 65.4 ± 1.13 | 28 to 77 |  | 
